# Laboratory results published in ChEMBL document CHEMBL1201862, “PubChem BioAssay data set” (2004).
# Activity calls are given as the source filed them.
# What was measured:
# [1] = Luminescent dose response cell-based high throughput screening assay for inhibitors of the Janus kinase 2 mutant JAK2V617F. [Related pubchem assays: 1446 (Primary screen.), 1521 (Confirmation assay.), 1486 (Counter screen.)]; type: functional
# [2] = inhibitors of firefly luciferase expression or activity, dose response, H4 neuroglioma cells, luminescence (AID 1990); type: functional, cell-based
# [3] = molecular target: E3 ubiquitin-protein ligase Mdm2 (Homo sapiens, UniProt Q00987); assay: enhancers of MDM2-luciferase reporter signal, concentration-effect titration, project on inhibitors of MDM2 ubiquitin ligase, cellular assay, luminescent readout, 384-well plate format (AID 1394); type: functional;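 note: MDM2 E3 inhibitors raise luminescence so EC50 is for signal enhancement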
# [4] = test system: HeLa; assay: Cytotoxicity counterscreen assay for transcriptional activators of heat shock protein 70 (Hsp70). [Related pubchem assays: 1203, 1252 ]; type: functional; conditions: Homo sapiens;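 note: cells exposed to compound for 16 hours before readout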
# [5] = test system: BJ; assay: cytotoxicity toward BJ-TERT fibroblasts, dose response, cell-based, RAS-independent, luminescence (AID 1933); type: functional; conditions: Homo sapiens
# [6] = Luminescence Cell-Based Dose Response HTS to Identify Inhibitors of 5'UTR Stem-Loop Driven Prion Protein mRNA Translation in H4 Neuroglioblastoma Cells. [Related pubchem assays: 1827 (Project Summary), 1813 (Primary HTS)]; type: functional
# [7] = inhibitors of SNCA 5'UTR-driven reporter translation, confirmation, H4 neuroglioma cells, luminescence (AID 1988); type: functional, cell-based
# [8] = test system: BJ; assay: cells; type: functional, cell-based; conditions: Homo sapiens
# [9] = test system: BJ; assay: cytotoxicity toward BJ-TERT-LT-ST fibroblasts, dose response, cell-based, RAS-independent, luminescence (AID 1935); type: functional; conditions: Homo sapiens;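 note: BJ fibroblasts immortalized with TERT plus LT and ST oncogenes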
# [10] = cytotoxicity toward DRD oncogenic fibroblasts, dose response, cell-based, non-viral oncogenic, luminescence (AID 1934); type: functional; conditions: Homo sapiens
# [11] = molecular target: E3 ubiquitin-protein ligase Mdm2/Protein Mdm4 (Homo sapiens, UniProt O15151+Q00987); assay: Mdm2-MdmX interaction inhibitors, dose response, luminescence detection (AID 504593); type: functional
# [12] = cytotoxicity in HEK-293T cells, dose response, cytotoxicity control for TCR NF-kB inhibitor project, luminescence, T-cell screen hits (AID 489026); type: functional, cell-based;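 note: cells exposed to compound about 14 hours before the viability readout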
# [13] = test system: BJ; assay: cytotoxicity toward Ras-transformed BJeLR fibroblasts, dose response, cell-based, alamar blue fluorescence, cherrypicked samples (AID 2631); type: functional; conditions: Homo sapiens;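 note: confirmatory dose-response assay in RAS-dependent BJ fibroblasts engineered with TERT, LT and ST, with cytotoxicity read by fluorescence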
# [14] = test system: INS1; assay: beta cell apoptosis inhibitors, cytokine rescue, dose response, luminescence, retest (AID 449756); type: functional, cell-based; conditions: Rattus norvegicus;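 note: cell death triggered by IL-1 beta plus TNF-alpha plus IFN-gamma mixture; protective hits raise ATP signal compared with cytokine alone wells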
# [15] = molecular target: T1, Hepatocyte nuclear factor 4-alpha (Homo sapiens, UniProt P41235); type: functional, cell-based;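 note: biochemical luminescence-based dose-response counterscreen measuring inhibition of HNF4 dimerization, run alongside a screen for blockers of ABHD5–perilipin-5 interaction; split luciferase complementation of HNF4 fusion proteins in cell lysate measuring dimerization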
# T1 sequence (P41235 whole entry): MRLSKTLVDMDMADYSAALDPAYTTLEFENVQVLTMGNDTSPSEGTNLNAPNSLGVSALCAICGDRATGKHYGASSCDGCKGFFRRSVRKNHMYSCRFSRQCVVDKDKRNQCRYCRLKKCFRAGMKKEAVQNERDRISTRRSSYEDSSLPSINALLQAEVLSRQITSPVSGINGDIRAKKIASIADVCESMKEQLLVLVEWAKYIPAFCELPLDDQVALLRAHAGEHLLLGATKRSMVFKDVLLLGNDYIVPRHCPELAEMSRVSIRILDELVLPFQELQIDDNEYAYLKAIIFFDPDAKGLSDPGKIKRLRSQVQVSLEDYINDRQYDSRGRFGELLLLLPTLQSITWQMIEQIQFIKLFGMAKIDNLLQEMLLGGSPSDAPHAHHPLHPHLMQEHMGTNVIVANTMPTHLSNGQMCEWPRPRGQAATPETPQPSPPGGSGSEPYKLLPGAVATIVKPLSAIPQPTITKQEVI
# [16] = molecular target: Hexokinase (Trypanosoma brucei, UniProt Q38C41); assay: Confirmation assay for inhibitors of Trypanosoma brucei hexokinase 1-Analogue-first series. [Related pubchem assays (depositor defined):AID1430, AID1632, AID2516, AID2560, AID2579, AID2600, AID449725, AID492951]; type: functional
# [17] = molecular target: T2, Voltage-gated N-type calcium channel alpha-1B subunit/Amyloid beta A4 precursor protein-binding family A member 1 (Homo sapiens, UniProt Q00975+Q02410); type: protein assay
# [18] = molecular target: T2, Voltage-gated N-type calcium channel alpha-1B subunit/Amyloid beta A4 precursor protein-binding family A member 1; type: protein assay; remark: listed apart in the source
# [19] = molecular target: Integrin alpha-L (Mus musculus, UniProt P24063); assay: modulators of CD8 T cell-vesicle binding, dose response, powder samples, mouse 2C CD8+ cells (AID 504565); type: functional
# [20] = molecular target: T3, Tyrosine-protein phosphatase non-receptor type 7 (Homo sapiens, UniProt P35236); type: functional
# T3 sequence (P35236 whole entry): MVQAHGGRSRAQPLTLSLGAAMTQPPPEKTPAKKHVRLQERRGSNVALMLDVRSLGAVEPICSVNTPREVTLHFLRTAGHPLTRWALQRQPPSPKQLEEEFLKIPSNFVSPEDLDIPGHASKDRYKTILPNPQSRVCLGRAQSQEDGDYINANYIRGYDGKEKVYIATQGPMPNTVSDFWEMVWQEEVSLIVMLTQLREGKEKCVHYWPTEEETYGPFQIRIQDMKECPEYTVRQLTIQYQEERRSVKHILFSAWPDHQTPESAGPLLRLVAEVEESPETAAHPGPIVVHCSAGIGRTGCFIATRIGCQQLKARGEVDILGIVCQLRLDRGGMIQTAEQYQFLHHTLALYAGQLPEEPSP
# [21] = molecular target: Glyceraldehyde-3-phosphate dehydrogenase (Homo sapiens, UniProt P04406)
# [22] = molecular target: T4, Dual specificity protein phosphatase 6 (Rattus norvegicus, UniProt Q64346)
# T4 sequence (Q64346 whole entry): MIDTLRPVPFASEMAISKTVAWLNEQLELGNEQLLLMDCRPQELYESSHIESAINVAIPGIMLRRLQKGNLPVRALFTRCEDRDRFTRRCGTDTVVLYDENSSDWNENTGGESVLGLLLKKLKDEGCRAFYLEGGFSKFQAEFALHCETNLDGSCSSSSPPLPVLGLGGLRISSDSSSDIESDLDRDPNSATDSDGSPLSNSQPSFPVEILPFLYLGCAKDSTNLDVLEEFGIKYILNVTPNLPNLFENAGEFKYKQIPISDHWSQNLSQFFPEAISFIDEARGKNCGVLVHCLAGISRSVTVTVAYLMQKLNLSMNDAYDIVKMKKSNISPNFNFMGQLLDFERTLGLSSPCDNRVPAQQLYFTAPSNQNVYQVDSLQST
# [23] = molecular target: T5, Short transient receptor potential channel 4 (Mus musculus, UniProt Q9QUQ5); assay: mouse TRPC4 channel inhibitors, dose response, cell-based, HEK293 TRPC4/mu-opioid, Fluo-4 calcium (AID 434942); type: functional;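 note: potency of inhibitors blocking the TRPC4 calcium response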
# T5 sequence (Q9QUQ5 whole entry): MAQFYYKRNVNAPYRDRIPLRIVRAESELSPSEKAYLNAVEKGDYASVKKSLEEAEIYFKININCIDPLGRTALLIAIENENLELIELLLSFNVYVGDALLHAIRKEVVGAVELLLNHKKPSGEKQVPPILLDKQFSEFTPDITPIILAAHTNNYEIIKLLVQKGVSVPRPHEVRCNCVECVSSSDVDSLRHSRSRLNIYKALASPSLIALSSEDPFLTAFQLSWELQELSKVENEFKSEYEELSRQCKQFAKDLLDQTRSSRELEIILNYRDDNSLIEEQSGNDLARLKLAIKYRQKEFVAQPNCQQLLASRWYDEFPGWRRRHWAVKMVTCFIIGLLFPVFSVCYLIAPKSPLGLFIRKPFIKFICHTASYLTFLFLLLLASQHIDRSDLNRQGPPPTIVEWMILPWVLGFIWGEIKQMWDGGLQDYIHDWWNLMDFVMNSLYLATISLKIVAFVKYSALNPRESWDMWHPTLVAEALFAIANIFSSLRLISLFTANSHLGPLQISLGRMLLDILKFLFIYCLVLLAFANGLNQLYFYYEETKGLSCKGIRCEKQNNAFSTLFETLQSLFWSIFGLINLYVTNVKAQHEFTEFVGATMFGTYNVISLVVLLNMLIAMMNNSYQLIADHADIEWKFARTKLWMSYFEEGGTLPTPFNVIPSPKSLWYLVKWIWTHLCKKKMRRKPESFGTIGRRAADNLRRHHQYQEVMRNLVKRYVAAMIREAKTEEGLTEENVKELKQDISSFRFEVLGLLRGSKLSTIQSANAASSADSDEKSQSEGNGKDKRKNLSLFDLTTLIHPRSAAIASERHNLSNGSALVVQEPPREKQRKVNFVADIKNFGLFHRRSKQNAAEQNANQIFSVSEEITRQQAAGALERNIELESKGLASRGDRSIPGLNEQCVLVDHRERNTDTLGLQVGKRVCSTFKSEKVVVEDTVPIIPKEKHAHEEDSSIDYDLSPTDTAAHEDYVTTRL
# [24] = molecular target: T6, Dual specificity protein phosphatase 3 (Homo sapiens, UniProt P51452); assay: SAR VHR1 Fluorescent Assay for In Vitro dose response studies. [Related pubchem assays (depositor defined):AID1654, AID1661, AID1878, AID1992, AID2004, AID2070, AID2085]; type: functional
# [25] = molecular target: T6, Dual specificity protein phosphatase 3; assay: MOA VHR1 Fluorescent secondary assay for identification of redox-state modulating compounds. [Related pubchem assays (depositor defined):AID1654, AID1661, AID1878, AID1957]
# [26] = molecular target: T3, Tyrosine-protein phosphatase non-receptor type 7; assay: redox-dependent HePTP inhibition, mechanism study, biochemical, fluorescence (AID 2068); type: functional
# [27] = molecular target: T5, Short transient receptor potential channel 4; assay: mouse TRPC4 channel activators, dose response, cell-based, HEK293 TRPC4/mu-opioid, Fluo-4 calcium (AID 434937); type: functional
# [28] = molecular target: T4, Dual specificity protein phosphatase 6; type: functional
# [29] = molecular target: T3, Tyrosine-protein phosphatase non-receptor type 7; assay: SAR analysis of chemical inhibitors of HePTP using a Fluorescent assay - Set 2. [Related pubchem assays (depositor defined):AID1059, AID1077, AID1661, AID2085, AID521]; type: functional
# [30] = molecular target: T6, Dual specificity protein phosphatase 3; assay: SAR VHR1 Fluorescent Assay for In Vitro dose response studies Set 2. [Related pubchem assays (depositor defined):AID1654, AID1661, AID1878]; type: functional
# [31] = molecular target: Alkaline phosphatase, placental type (Homo sapiens, UniProt P05187); assay: PLAP enzyme inhibitors, confirmation, biochemical, luminescence (AID 1512); type: functional
# [32] = molecular target: T7, Alkaline phosphatase, tissue-nonspecific isozyme (Homo sapiens, UniProt P05186); assay: human TNAP enzyme inhibitors, SAR follow-up, biochemical, luminescent, dose response (AID 1056)
# T7 sequence (P05186 whole entry): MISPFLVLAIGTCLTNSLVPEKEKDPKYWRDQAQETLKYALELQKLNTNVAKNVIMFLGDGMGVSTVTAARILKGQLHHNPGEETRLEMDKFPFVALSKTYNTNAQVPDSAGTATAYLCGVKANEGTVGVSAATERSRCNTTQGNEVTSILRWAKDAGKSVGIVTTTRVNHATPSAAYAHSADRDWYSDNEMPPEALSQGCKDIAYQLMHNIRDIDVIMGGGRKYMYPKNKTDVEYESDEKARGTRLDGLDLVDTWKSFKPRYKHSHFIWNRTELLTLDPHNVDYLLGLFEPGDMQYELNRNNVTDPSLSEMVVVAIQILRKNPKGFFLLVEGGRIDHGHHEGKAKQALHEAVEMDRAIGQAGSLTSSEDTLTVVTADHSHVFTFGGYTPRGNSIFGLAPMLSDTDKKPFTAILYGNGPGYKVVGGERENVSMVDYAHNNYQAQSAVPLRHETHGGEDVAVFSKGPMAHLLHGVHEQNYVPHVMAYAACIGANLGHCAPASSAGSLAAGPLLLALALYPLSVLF
# T6 sequence (P51452 whole entry): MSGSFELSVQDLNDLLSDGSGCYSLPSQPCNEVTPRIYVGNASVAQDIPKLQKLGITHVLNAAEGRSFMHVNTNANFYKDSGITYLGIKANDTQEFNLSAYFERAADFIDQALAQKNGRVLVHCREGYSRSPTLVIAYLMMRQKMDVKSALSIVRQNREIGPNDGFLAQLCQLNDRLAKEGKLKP
# T2 sequence (Q00975 whole entry): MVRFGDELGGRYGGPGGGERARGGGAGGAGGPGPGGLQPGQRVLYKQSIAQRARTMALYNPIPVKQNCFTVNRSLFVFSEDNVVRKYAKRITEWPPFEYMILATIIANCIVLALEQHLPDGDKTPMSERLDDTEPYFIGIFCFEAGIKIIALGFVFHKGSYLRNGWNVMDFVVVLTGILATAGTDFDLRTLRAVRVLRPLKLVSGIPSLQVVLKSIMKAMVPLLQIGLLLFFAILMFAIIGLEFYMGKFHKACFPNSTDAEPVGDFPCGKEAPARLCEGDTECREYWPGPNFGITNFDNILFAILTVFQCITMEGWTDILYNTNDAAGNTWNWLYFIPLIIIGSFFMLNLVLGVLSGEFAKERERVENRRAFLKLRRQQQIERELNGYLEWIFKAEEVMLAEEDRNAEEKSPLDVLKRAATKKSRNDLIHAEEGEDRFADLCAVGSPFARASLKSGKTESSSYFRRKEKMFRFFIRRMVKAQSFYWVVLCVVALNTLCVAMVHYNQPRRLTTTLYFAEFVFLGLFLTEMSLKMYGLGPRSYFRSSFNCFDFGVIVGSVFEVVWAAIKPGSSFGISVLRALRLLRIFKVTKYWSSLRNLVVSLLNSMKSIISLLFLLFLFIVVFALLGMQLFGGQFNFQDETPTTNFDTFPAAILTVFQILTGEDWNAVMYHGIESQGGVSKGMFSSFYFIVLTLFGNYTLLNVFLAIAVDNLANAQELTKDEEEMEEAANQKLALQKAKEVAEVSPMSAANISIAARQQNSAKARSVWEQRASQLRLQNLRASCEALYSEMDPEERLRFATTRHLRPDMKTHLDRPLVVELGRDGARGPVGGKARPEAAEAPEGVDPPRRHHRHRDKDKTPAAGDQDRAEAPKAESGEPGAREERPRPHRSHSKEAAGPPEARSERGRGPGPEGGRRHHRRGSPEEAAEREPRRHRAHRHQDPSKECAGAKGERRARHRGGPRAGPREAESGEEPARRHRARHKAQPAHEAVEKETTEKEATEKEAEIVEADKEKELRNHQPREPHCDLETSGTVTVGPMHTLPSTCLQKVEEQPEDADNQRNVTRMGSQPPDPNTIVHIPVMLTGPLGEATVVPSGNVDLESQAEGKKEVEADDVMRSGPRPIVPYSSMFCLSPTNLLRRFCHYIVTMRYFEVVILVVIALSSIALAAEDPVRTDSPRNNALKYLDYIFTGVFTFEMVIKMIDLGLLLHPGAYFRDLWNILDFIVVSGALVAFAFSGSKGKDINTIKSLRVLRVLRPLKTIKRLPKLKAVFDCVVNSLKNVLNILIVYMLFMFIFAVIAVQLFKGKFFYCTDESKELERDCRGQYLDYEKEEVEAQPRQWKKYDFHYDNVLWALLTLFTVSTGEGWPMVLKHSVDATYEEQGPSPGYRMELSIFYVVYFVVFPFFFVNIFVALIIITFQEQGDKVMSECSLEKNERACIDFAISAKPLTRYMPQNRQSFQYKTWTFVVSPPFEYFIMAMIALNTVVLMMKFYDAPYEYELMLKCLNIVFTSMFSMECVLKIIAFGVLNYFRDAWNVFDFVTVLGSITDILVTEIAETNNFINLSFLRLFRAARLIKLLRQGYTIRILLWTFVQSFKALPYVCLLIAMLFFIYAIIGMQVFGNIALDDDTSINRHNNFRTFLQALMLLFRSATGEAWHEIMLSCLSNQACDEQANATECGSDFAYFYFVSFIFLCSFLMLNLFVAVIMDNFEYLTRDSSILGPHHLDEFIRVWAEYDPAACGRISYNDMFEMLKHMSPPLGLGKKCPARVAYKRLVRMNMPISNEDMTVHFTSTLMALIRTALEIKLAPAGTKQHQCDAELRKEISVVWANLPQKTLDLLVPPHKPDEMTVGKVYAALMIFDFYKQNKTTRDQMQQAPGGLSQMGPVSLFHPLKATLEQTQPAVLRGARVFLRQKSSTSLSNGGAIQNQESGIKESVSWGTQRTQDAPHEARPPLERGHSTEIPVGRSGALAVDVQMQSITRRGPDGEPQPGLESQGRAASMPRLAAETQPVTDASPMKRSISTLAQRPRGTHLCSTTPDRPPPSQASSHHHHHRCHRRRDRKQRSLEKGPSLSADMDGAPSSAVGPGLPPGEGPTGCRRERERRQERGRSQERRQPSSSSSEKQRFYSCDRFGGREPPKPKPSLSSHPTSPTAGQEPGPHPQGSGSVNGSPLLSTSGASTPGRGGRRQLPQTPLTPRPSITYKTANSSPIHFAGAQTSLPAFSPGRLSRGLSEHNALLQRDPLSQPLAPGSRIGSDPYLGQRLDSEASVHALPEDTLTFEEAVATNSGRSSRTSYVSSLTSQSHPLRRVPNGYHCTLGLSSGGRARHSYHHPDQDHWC
# T2 sequence (Q02410 whole entry): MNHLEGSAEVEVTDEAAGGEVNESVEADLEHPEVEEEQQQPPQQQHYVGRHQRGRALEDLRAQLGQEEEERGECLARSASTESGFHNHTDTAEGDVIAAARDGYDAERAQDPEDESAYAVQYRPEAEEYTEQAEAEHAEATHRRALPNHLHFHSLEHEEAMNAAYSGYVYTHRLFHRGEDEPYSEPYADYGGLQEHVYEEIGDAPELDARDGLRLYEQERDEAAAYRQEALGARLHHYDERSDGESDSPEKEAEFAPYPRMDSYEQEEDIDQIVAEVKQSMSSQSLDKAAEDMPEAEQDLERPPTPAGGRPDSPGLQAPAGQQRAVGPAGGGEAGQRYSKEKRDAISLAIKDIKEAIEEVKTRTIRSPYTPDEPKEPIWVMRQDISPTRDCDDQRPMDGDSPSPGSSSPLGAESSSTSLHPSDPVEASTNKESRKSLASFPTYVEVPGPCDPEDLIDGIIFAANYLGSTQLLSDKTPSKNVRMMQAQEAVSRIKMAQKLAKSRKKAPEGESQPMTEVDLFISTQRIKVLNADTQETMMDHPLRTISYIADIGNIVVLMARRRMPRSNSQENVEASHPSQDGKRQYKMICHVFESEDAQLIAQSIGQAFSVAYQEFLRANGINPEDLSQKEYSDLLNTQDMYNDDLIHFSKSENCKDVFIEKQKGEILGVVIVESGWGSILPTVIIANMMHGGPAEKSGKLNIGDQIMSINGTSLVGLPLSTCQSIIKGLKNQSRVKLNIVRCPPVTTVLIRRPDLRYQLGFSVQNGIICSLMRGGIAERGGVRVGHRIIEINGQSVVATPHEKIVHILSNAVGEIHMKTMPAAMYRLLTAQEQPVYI
# Chain of E3 ubiquitin-protein ligase Mdm2 (Q00987 whole entry): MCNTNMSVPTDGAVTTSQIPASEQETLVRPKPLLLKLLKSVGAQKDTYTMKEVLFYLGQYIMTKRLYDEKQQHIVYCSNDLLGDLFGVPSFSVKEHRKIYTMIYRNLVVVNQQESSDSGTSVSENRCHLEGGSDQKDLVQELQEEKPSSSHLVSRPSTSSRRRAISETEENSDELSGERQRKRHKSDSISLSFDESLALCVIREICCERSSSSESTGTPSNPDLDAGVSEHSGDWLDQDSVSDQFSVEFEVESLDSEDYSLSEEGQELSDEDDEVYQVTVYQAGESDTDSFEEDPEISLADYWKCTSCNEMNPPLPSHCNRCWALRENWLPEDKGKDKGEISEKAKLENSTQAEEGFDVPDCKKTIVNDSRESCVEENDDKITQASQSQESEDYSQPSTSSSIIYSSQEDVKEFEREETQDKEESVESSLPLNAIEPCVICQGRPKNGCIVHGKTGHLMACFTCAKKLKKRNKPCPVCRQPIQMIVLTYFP
# Chain of E3 ubiquitin-protein ligase Mdm2/Protein Mdm4 (Q00987 whole entry): as above
# Chain of E3 ubiquitin-protein ligase Mdm2/Protein Mdm4 (O15151 whole entry): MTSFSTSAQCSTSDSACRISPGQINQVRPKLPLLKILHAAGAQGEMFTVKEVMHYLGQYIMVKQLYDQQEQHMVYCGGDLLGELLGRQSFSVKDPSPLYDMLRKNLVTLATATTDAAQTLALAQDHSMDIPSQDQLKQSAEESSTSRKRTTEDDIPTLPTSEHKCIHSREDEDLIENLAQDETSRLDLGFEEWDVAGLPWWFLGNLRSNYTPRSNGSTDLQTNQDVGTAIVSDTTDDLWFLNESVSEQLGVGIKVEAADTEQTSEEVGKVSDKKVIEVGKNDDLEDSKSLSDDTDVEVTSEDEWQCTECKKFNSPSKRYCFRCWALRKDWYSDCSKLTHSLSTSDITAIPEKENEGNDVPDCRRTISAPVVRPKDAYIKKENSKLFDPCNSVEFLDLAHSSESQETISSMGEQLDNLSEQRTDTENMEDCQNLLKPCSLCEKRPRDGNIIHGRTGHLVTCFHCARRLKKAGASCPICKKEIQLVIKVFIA
# Chain of Alkaline phosphatase, placental type (P05187 whole entry): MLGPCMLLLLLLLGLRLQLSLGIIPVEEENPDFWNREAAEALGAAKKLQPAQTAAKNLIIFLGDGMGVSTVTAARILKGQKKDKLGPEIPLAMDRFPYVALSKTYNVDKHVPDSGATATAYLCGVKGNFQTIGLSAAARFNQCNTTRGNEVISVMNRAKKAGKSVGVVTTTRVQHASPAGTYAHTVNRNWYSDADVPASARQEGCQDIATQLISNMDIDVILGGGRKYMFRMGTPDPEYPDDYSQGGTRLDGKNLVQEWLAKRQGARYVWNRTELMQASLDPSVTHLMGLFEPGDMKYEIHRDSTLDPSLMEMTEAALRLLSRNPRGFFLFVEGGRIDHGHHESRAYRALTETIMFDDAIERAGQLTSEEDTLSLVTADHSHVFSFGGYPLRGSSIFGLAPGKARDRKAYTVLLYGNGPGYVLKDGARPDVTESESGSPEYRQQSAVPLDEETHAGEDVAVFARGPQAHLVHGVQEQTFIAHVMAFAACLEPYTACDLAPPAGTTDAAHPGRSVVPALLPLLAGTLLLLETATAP
compound,measurement,setting,value
CCN1C/C(=C/c2ccc(OC)c(O)c2)C(=O)/C(=C/c2ccc(OC)c(O)c2)C1,IC50,[1],0.67 µM (active)
same,EC50,[2],0.374 µM (inconclusive)
same,EC50,[3],0.38 µM (active)
same,CC50,[4],> 3.67 µM (not active)
same,EC50,[5],1.78 µM (inconclusive)
same,EC50,[6],0.221 µM (active)
same,EC50,[7],4.84 µM (active)
same,EC50,[8],1.35 µM (inconclusive)
same,EC50,[9],1.25 µM (inconclusive)
same,EC50,[10],1.34 µM (active)
same,IC50,[11],8.47 µM (active)
same,IC50,[12],> 80 µM (inactive)
same,EC50,[13],0.38 µM (active)
same,AC50,[14],4.09 µM (active)
same,IC50,[15],12.9 µM (inactive)
COc1ccc(C(=O)Nc2cc(Cl)c(C)cc2C(=O)O)cc1,IC50,[16],10.3 µM (active)
COc1ccc2cc(/N=C/c3nc(-c4ccc(C)cc4)oc3O)cnc2c1,IC50,[17],10.3 µM (active)
same,IC50,[18],> 50 µM (inactive)
COc1ccc(S(=O)(=O)N2CCCC2C(=O)Nc2ccc(C(C)=O)cc2)cc1 (configuration not stated),EC50,[19],0.04 µM (active)
Cc1ccc2c(nc3s/c(=C\c4ccc(-c5ccccc5C(=O)O)o4)c(=O)n32)c1C,IC50,[20],3.88 µM (active)
same,IC50,[21],> 100 µM (not active)
same,IC50,[22],22 µM (active)
same,EC50,[23],5.31 µM (active)
same,IC50,[24],5.71 µM (active)
same,IC50,[25],2.94 µM (active)
same,IC50,[26],2.2 µM (active)
same,EC50,[27],6.68 µM (active)
same,IC50,[28],35.3 µM (active)
COc1cccc(CN2CCN(C(=S)Nc3ccc(S(N)(=O)=O)cc3)CC2)c1,IC50,[29],> 100 µM (inactive)
same,IC50,[30],> 100 µM (inactive)
COc1ccc(-c2nnc(SCC(=O)c3ccc(O)c(O)c3)n2-c2ccc(Cl)cc2)cc1,IC50,[31],25 µM (active)
same,IC50,[32],> 100 µM (inactive)
